These results are taken from patent US12441709B2, “Therapeutic compounds” (INDIVIOR UK LIMITED, priority 2016, dated 2025).

The target in experiment [1] is T1, human OX2 receptor (Homo sapiens, UniProt O43614).
T1 construct: expressed in transfected cells; host or cells: CHO cell line (membranes)
T1 sequence (O43614 1-444): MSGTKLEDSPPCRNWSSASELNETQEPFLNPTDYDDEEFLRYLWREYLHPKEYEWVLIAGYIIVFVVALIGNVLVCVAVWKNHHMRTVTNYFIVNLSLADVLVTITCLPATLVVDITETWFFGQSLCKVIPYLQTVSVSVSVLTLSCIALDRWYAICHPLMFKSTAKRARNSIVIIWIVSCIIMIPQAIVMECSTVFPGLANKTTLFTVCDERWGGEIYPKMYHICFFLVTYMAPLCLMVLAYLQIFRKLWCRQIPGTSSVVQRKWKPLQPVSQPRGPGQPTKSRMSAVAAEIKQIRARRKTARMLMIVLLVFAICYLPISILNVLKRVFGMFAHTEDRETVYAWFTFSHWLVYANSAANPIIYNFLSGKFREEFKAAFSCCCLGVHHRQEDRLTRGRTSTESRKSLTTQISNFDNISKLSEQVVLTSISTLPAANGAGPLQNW
The experiment in a line: Ox2 antagonist FLIPR assay (calcium, orexin A at EC75). Format: cell-based. As to conditions: CHO cells expressing human OX2; top concentration at least 10 μM; at least four replicates; read-out: hOX2 pIC50 (converted). The source says: Antagonism against orexin receptors has been measured for each example compound using at least one of the following procedures. Antagonism is reported as a pIC50, where pIC50=−log10(IC50) and where IC50 is the concentration of example compound needed to inhibit 50% of the agonist response. These values may fluctuate depending on the daily cellular assay performance. Fluctuations of this kind are known to those skilled in the art. All reported values are the result of at least four replicate experiments. Ox2 values are only reported from dose response curves for which the top concentration is at least 10 μM.
Ox1 and Ox2 Antagonist FLIPR Assay: […]
The next day media is removed and replaced with 30 μL/well of cell loading buffer (a vial of Calcium 5 is solubilized in 20 mL of assay buffer) and the cells incubated for 1 hr at 37° C. The serially diluted test compounds (10 μL/well) are added to the cell plate by the FLIPR Tetra and the addition is monitored for 5 min by the instrument. […] Finally 10 μL of orexin Ain assay buffer+0.1% (w/v) bovine serum albumin is dispensed by the FLIPR Tetra at an EC75 concentration determined for each receptor on the day of the assay. Fluorescence is measured at excitation and emission wavelengths of 485 nm and 525 nm, respectively and data analyzed using Graph Pad Prism for the EC75 value of orexin A and Aplus to determine a pIC50 value for each test compound. […]

For experiment [2], the target named is T2, human OX1 receptor (Homo sapiens, UniProt O43613).
T2 construct: expressed in transfected cells; host or cells: CHO cells
T2 sequence (O43613 1-425): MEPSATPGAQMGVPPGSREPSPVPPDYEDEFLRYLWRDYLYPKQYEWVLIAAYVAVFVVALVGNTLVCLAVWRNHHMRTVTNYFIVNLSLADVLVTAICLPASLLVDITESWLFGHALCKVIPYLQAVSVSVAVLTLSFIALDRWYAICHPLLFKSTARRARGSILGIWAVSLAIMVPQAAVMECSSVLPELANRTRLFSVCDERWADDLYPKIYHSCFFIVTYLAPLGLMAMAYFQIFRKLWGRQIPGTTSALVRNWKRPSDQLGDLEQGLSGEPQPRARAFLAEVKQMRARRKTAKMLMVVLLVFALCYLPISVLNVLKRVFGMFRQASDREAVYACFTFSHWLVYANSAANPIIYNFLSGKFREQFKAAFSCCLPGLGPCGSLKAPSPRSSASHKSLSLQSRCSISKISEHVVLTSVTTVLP
The experiment in a line: Orexin 1 receptor radioligand binding assay ([3H]-SB674042 competition). As to conditions: CHO membranes, 1 nM [3H]-SB674042, 90 min room temperature; read-out: hOX1 pKi (converted). The protocol:
Orexin 1 Receptor Radioligand Binding Assay:
Cell membranes were prepared from the human OX1 receptor expressing CHO cell line. The harvested cell pellets were homogenized in ice-cold buffer (15 mM TrisHCl (pH 7.5), 2 mM MgCl2, 0.3 mM EDTA, 1 mM EGTA, Sigma protease inhibitor cocktail) and centrifuged at 41,000 g for 20 min at 4° C. After discarding the supernatants the pellets were re-suspended in the before mentioned buffer followed by homogenization and another centrifugation. Obtained pellets were re-suspended in ice cold buffer containing 75 mM TrisHCl (pH 7.5), 12.5 mM MgCl2, 0.3 mM EDTA, 1 mM EGTA, 250 mM sucrose and a protease inhibitor cocktail (Sigma). After protein quantification with the Pierce Protein Assay Kit, using BSA as standard, the membrane homogenates were aliquoted and frozen down at […] until further use.
Expression levels of the Ox1 receptor (Bmax) were determined by saturation binding and the Kd of the radioligand [^3H]SB674042 was determined by association and dissociation kinetics. Data were elaborated with Graph Pad Prism using radioligand binding analysis. Steady state binding was reached after 90 min of incubation at room temperature. […]

For the compound `Cc1ccc(-n2nccn2)c(C(=O)N(C)[C@@H](C)CNc2ncc(C(F)(F)F)cn2)n1` [Example 2, N,6-dimethyl-3-(2H-1,2,3-triazol-2-yl)-N-[(2S)-1-{[5-(trifluoromethyl)pyrimidin-2-yl]amino}propan-2-yl]pyridine-2-carboxamide], the IC50 in experiment [1] is 2000 nM. Further, in experiment [2], the Ki is 1.58 nM.
Consider `Cc1ccc(-n2nccn2)c(C(=O)N(C)[C@@H](C)CNc2cnc(C(F)(F)F)cn2)n1` [Example 1, N,6-dimethyl-3-(2H-1,2,3-triazol-2-yl)-N-[(2S)-1-{[5-(trifluoromethyl)pyrazin-2-yl]amino}propan-2-yl]pyridine-2-carboxamide], for which the IC50 in experiment [1] was 1000 nM. The Ki in experiment [2] is 1 nM.
